Laboratory results reported in the supplement of paper PMC11061612.

How the values were obtained:
Palbociclib = compound: CC(=O)c1c(C)c2cnc(Nc3ccc(N4CCNCC4)cn3)nc2n(C2CCCC2)c1=O [Palbociclib]; details: max 10 µM
How it was run: (§1)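 Cancer cell lines were seeded into 1536-well plates in 7.5 μl medium (DMEM/F12 or RPMI, 10% FBS), held 24 hours at 37°C and 5% CO2, and dosed for 72 hours with final DMSO typically 0.2%. Luminescence from CellTiter-Glo 2.0, scaled between blank-well and DMSO-well means, served as viability. The single-agent IC50 was obtained from dose-response fits with a non-linear mixed effects model, each fit being a two-parameter logistic curve.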

AZD1775 = compound: C=CCn1c(=O)c2cnc(Nc3ccc(N4CCN(C)CC4)cc3)nc2n1-c1cccc(C(C)(C)O)n1 [AZD1775]; details: max 3 µM
How it was run: as §1

Savolitinib = compound: C[C@@H](c1ccc2nccn2c1)n1nnc2ncc(-c3cnn(C)c3)nc21 [Savolitinib]; details: max 1 µM
How it was run: as §1

Etoposide = compound: COc1cc([C@@H]2c3cc4c(cc3[C@@H](O[C@@H]3O[C@@H]5CO[C@@H](C)O[C@H]5[C@H](O)[C@H]3O)[C@H]3COC(=O)[C@H]23)OCO4)cc(OC)c1O [Etoposide]; details: max 10 µM
How it was run: as §1

[1] = compound: O=C(Nc1ccc2[nH]nc(-c3ccncc3)c2c1)[C@@H]1CCN(CC(=O)N2CCN(c3ccc(-c4ncccn4)cc3)CC2)C1; details: max 5 µM
How it was run: as §1

AZD0156 = compound: CN(C)CCCOc1ccc(-c2ccc3ncc4c(c3c2)n(C2CCOCC2)c(=O)n4C)cn1 [AZD0156]; details: max 3 µM
How it was run: as §1

Prexasertib = compound: COc1cccc(OCCCN)c1-c1cc(Nc2cnc(C#N)cn2)n[nH]1 [Prexasertib]; details: max 1 µM
How it was run: as §1

Trametinib = compound: CC(=O)Nc1cccc(-n2c(=O)n(C3CC3)c(=O)c3c(Nc4ccc(I)cc4F)n(C)c(=O)c(C)c32)c1 [Trametinib]; details: max 1 µM
How it was run: as §1

Doxorubicin = compound: COc1cccc2c1C(=O)c1c(O)c3c(c(O)c1C2=O)C[C@@](O)(C(=O)CO)C[C@@H]3O[C@H]1C[C@H](N)[C@H](O)[C@H](C)O1 [Doxorubicin]; details: max 1 µM
How it was run: as §1

Lapatinib = compound: CS(=O)(=O)CCNCc1ccc(-c2ccc3ncnc(Nc4ccc(OCc5cccc(F)c5)c(Cl)c4)c3c2)o1 [Lapatinib]; details: max 10 µM
How it was run: as §1

AZD5991 = compound: Cc1c2c(nn1C)CSCc1cc(n(C)n1)CSc1cc(c3ccccc3c1)OCCCc1c(C(=O)O)n(C)c3c-2c(Cl)ccc13 [AZD5991]; details: max 1 µM
How it was run: as §1

SRA737 = compound: N#Cc1cnc(Nc2cc(NC[C@H]3CNCCO3)c(C(F)(F)F)cn2)cn1 [SRA737]; details: max 10 µM
How it was run: as §1

Dasatinib = compound: CC1=C(C(=CC=C1)Cl)NC(=O)C2=CN=C(S2)NC3=CC(=NC(=N3)C)N4CCN(CC4)CCO [Dasatinib]; details: max 2 µM
How it was run: as §1

Selumetinib = compound: Cn1cnc2c(F)c(Nc3ccc(Br)cc3Cl)c(C(=O)NOCCO)cc21 [Selumetinib]; details: max 10 µM
How it was run: as §1

Crizotinib = compound: C[C@@H](Oc1cc(-c2cnn(C3CCNCC3)c2)cnc1N)c1c(Cl)ccc(F)c1Cl [Crizotinib]; details: max 10 µM
How it was run: as §1

AZD7648 = compound: Cc1cc2ncnn2cc1Nc1ncc2c(n1)n(C1CCOCC1)c(=O)n2C [AZD7648]; details: max 10 µM
How it was run: as §1

Taselisib = compound: Cc1nc(-c2cn3c(n2)-c2ccc(-c4cnn(C(C)(C)C(N)=O)c4)cc2OCC3)n(C(C)C)n1 [Taselisib]; details: max 10 µM
How it was run: as §1

Gemcitabine = compound: Nc1ccn([C@@H]2O[C@H](CO)[C@@H](O)C2(F)F)c(=O)n1 [Gemcitabine]; details: max 0.3 µM
How it was run: as §1

Alisertib = compound: COc1cc(Nc2ncc3c(n2)-c2ccc(Cl)cc2C(c2c(F)cccc2OC)=NC3)ccc1C(=O)O [Alisertib]; details: max 10 µM
How it was run: as §1

AZD1390 = compound: CC(C)n1c(=O)n(C)c2cnc3cc(F)c(-c4ccc(OCCCN5CCCCC5)nc4)cc3c21 [AZD1390]; details: max 0.3 µM
How it was run: as §1

AZD8186 = compound: C[C@@H](Nc1cc(F)cc(F)c1)c1cc(C(=O)N(C)C)cc2c(=O)cc(N3CCOCC3)oc12 [AZD8186]; details: max 10 µM
How it was run: as §1

Carboplatin = compound: C1CC(C1)(C(=O)[O-])C(=O)[O-].N.N.[Pt+2] [Carboplatin]; details: max 10 µM
How it was run: as §1

Gefitinib = compound: COc1cc2ncnc(Nc3ccc(F)c(Cl)c3)c2cc1OCCCN1CCOCC1 [Gefitinib]; details: max 10 µM
How it was run: as §1

AZD4320 = compound: CN(CC[C@H](CSC1=CC=CC=C1)NC2=C(C=C(C=C2)S(=O)(=O)NC(=O)C3=CC=C(C=C3)N4CCC(CC4)[C@H](C5=CC=CC=C5C6=CC=C(C=C6)Cl)O)S(=O)(=O)C(F)(F)F)CCO [AZD4320]; details: max 1 µM
How it was run: as §1

5-Fluorouracil = compound: O=c1[nH]cc(F)c(=O)[nH]1 [5-Fluorouracil]; details: max 20 µM
How it was run: as §1

Venetoclax = compound: CC1(C)CCC(CN2CCN(c3ccc(C(=O)NS(=O)(=O)c4ccc(NCC5CCOCC5)c([N+](=O)[O-])c4)c(Oc4cnc5[nH]ccc5c4)c3)CC2)=C(c2ccc(Cl)cc2)C1 [Venetoclax]; details: max 1 µM
How it was run: as §1

MK-2206 = compound: NC1(c2ccc(-c3nc4ccn5c(=O)[nH]nc5c4cc3-c3ccccc3)cc2)CCC1 [MK-2206]; details: max 10 µM
How it was run: as §1

AZD6738 = compound: C[C@@H]1COCCN1C2=NC(=NC(=C2)C3(CC3)[S@](=N)(=O)C)C4=C5C=CNC5=NC=C4 [AZD6738]; details: max 10 µM
How it was run: as §1

AZD2811 = compound: CCN(CCO)CCCOc1ccc2c(Nc3cc(CC(=O)Nc4cccc(F)c4)[nH]n3)ncnc2c1 [AZD2811]; details: max 1 µM
How it was run: as §1

Paclitaxel = compound: CC(=O)O[C@H]1C(=O)[C@@]2(C)[C@H]([C@H](OC(=O)c3ccccc3)[C@]3(O)C[C@H](OC(=O)[C@H](O)[C@@H](NC(=O)c4ccccc4)c4ccccc4)C(C)=C1C3(C)C)[C@]1(OC(C)=O)CO[C@@H]1C[C@@H]2O [Paclitaxel]; details: max 3 µM
How it was run: as §1

AZD5363 = compound: C1CN(CCC1(C(=O)N[C@@H](CCO)C2=CC=C(C=C2)Cl)N)C3=NC=NC4=C3C=CN4 [AZD5363]; details: max 10 µM
How it was run: as §1

AZD5153 = compound: COc1nnc2ccc(N3CCC(c4ccc(OCCN5CCN(C)C(=O)[C@H]5C)cc4)CC3)nn12 [AZD5153]; details: max 1 µM
How it was run: as §1

Olaparib = compound: O=C(c1cc(Cc2n[nH]c(=O)c3ccccc23)ccc1F)N1CCN(C(=O)C2CC2)CC1 [Olaparib]; details: max 10 µM
How it was run: as §1

SG3199 = compound: CC1=CN2[C@@H](C1)C=NC3=CC(=C(C=C3C2=O)OC)OCCCCCOC4=C(C=C5C(=C4)N=C[C@@H]6CC(=CN6C5=O)C)OC [SG3199]; details: max 0.001 µM
How it was run: as §1

SN-38 = compound: CCc1c2c(nc3ccc(O)cc13)-c1cc3c(c(=O)n1C2)COC(=O)[C@]3(O)CC [SN-38]; details: max 0.3 µM
How it was run: as §1

Cell Line | IC50, cell viability 72 h (Palbociclib) [µM] | IC50, cell viability 72 h (AZD1775) [µM] | IC50, cell viability 72 h (Savolitinib) [µM] | IC50, cell viability 72 h (Etoposide) [µM] | IC50, cell viability 72 h [1] [µM] | IC50, cell viability 72 h (AZD0156) [µM] | IC50, cell viability 72 h (Prexasertib) [µM] | IC50, cell viability 72 h (Trametinib) [µM] | IC50, cell viability 72 h (Doxorubicin) [µM] | IC50, cell viability 72 h (Lapatinib) [µM] | IC50, cell viability 72 h (AZD5991) [µM] | IC50, cell viability 72 h (SRA737) [µM] | IC50, cell viability 72 h (Dasatinib) [µM] | IC50, cell viability 72 h (Selumetinib) [µM] | IC50, cell viability 72 h (Crizotinib) [µM] | IC50, cell viability 72 h (AZD7648) [µM] | IC50, cell viability 72 h (Taselisib) [µM] | IC50, cell viability 72 h (Gemcitabine) [µM] | IC50, cell viability 72 h (Alisertib) [µM] | IC50, cell viability 72 h (AZD1390) [µM] | IC50, cell viability 72 h (AZD8186) [µM] | IC50, cell viability 72 h (Carboplatin) [µM] | IC50, cell viability 72 h (Gefitinib) [µM] | IC50, cell viability 72 h (AZD4320) [µM] | IC50, cell viability 72 h (5-Fluorouracil) [µM] | IC50, cell viability 72 h (Venetoclax) [µM] | IC50, cell viability 72 h (MK-2206) [µM] | IC50, cell viability 72 h (AZD6738) [µM] | IC50, cell viability 72 h (AZD2811) [µM] | IC50, cell viability 72 h (Paclitaxel) [µM] | IC50, cell viability 72 h (AZD5363) [µM] | IC50, cell viability 72 h (AZD5153) [µM] | IC50, cell viability 72 h (Olaparib) [µM] | IC50, cell viability 72 h (SG3199) [µM] | IC50, cell viability 72 h (SN-38) [µM]
RPMI-8402 (T-Lymphoblastic Leukemia) | 0.3 | 0.183 | > 1 | 0.158 | 4.09 | > 3 | 0.00584 | > 1 | 0.0681 | 4.4 | 0.504 | 1.32 | > 2 | > 10 | 1.63 | > 10 | 1.03 | 0.0235 | 0.214 | > 0.3 | 5.45 | > 10 | 9.05 | 0.247 | 9.93 | > 1 | 1.15 | 1.3 | 0.0333 | 0.00686 | 2.5 | 0.0631 | > 10 | > 0.001 | 0.00243
SBC-3 (Small Cell Lung Carcinoma) | 4.82 | 0.822 | > 1 | 0.313 | > 5 | > 3 | 0.136 | > 1 | 0.0717 | > 10 | > 1 | > 10 | > 2 | > 10 | 3.45 | > 10 | 2.58 | 0.0147 | 0.421 | > 0.3 | > 10 | > 10 | > 10 | > 1 | 4.54 | > 1 | > 10 | 5.85 | 0.636 | 0.0038 | > 10 | 0.0646 | > 10 | > 0.001 | 0.00225
SK-MEL-24 (Melanoma) | > 10 | > 3 | > 1 | > 10 | 3.27 | > 3 | 0.575 | 0.0463 | 0.701 | > 10 | > 1 | > 10 | > 2 | 2.77 | > 10 | > 10 | 5 | 0.193 | > 10 | > 0.3 | > 10 | > 10 | > 10 | > 1 | > 20 | > 1 | > 10 | > 10 | > 1 | 0.738 | > 10 | > 1 | > 10 | > 0.001 | 0.0239
SW1463 (Colorectal Carcinoma) | 7.12 | > 3 | > 1 | > 10 | > 5 | > 3 | 0.288 | 0.0784 | > 1 | > 10 | > 1 | > 10 | > 2 | 4.95 | > 10 | > 10 | > 10 | > 0.3 | > 10 | > 0.3 | > 10 | > 10 | 3.27 | > 1 | > 20 | > 1 | > 10 | > 10 | > 1 | > 3 | > 10 | > 1 | > 10 | > 0.001 | > 0.3
